Results from the supplement of paper PMC10307832.

How the values were obtained:
Assay in all cases: relative viability (nuclei count vs DMSO), 5 days (fraction); higher = more cells survive
EKVX = tested on: EKVX
Outline: (§1)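 Nuclei were stained with Hoechst during a one-step fixation (final 0.05% Triton X-100, 1% formaldehyde, 1 ug/ml Hoechst) carried out 5 days after dosing, then counted on 4× images. The cells, lung cancer lines in 1536-well plates, had been dosed by pin tool the day after seeding with one drug alone or a fixed anchor-drug dose plus five library-drug doses (not always all listed) in √10 steps. Relative viability is the nuclei count in treated wells divided by that in vehicle wells, and each value is the median of duplicate plates.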

LCLC-97TM1 = tested on: LCLC-97TM1
Outline: as §1

NCI-H1437 = tested on: NCI-H1437
Outline: as §1

NCI-H1650 = tested on: NCI-H1650
Outline: as §1

NCI-H1666 = tested on: NCI-H1666
Outline: as §1

NCI-H1792 = tested on: NCI-H1792
Outline: as §1

NCI-H1915 = tested on: NCI-H1915
Outline: as §1

NCI-H1975 = tested on: NCI-H1975
Outline: as §1

NCI-H2342 = tested on: NCI-H2342
Outline: as §1

NCI-H23 = tested on: NCI-H23
Outline: as §1

NCI-H322M = tested on: NCI-H322M
Outline: as §1

NCI-H358 = tested on: NCI-H358
Outline: as §1

NCI-H441 = tested on: NCI-H441
Outline: as §1

NCI-H460 = tested on: NCI-H460
Outline: as §1

NCI-H520 = tested on: NCI-H520
Outline: as §1

NCI-H522 = tested on: NCI-H522
Outline: as §1

NCI-H596 = tested on: NCI-H596
Outline: as §1

NCI-H647 = tested on: NCI-H647
Outline: as §1

NCI-H661 = tested on: NCI-H661
Outline: as §1

NCI-H727 = tested on: NCI-H727
Outline: as §1

NCI-H838 = tested on: NCI-H838
Outline: as §1

PC-3 [JPC-3] = tested on: PC-3 [JPC-3]
Outline: as §1

SK-LU-1 = tested on: SK-LU-1
Outline: as §1

Structure (SMILES): Cc1cn(-c2cc(NC(=O)c3ccc(C)c(Nc4nccc(-c5cccnc5)n4)c3)cc(C(F)(F)F)c2)cn1 [Nilotinib] + N=C(N)NC(=N)NCCc1ccccc1 [Phenformin] (partner 250 µM)
- relative viability (EKVX; first compound 0.001 µM): 0.231
- relative viability (EKVX; first compound 0.003162 µM): 0.232
- relative viability (EKVX; first compound 0.01 µM): 0.248
- relative viability (EKVX; first compound 0.03162 µM): 0.214
- relative viability (EKVX; first compound 0.1 µM): 0.236
- relative viability (LCLC-97TM1; first compound 0.001 µM): 0.393
- relative viability (LCLC-97TM1; first compound 0.003162 µM): 0.468
- relative viability (LCLC-97TM1; first compound 0.01 µM): 0.467
- relative viability (LCLC-97TM1; first compound 0.03162 µM): 0.426
- relative viability (LCLC-97TM1; first compound 0.1 µM): 0.453
- relative viability (NCI-H1437; first compound 0.001 µM): 0.325
- relative viability (NCI-H1437; first compound 0.003162 µM): 0.335
- relative viability (NCI-H1437; first compound 0.01 µM): 0.331
- relative viability (NCI-H1437; first compound 0.03162 µM): 0.23
- relative viability (NCI-H1437; first compound 0.1 µM): 0.224
- relative viability (NCI-H1650; first compound 0.001 µM): 0.464
- relative viability (NCI-H1650; first compound 0.003162 µM): 0.437
- relative viability (NCI-H1650; first compound 0.01 µM): 0.385
- relative viability (NCI-H1650; first compound 0.03162 µM): 0.32
- relative viability (NCI-H1650; first compound 0.1 µM): 0.307
- relative viability (NCI-H1666; first compound 0.001 µM): 0.605
- relative viability (NCI-H1666; first compound 0.003162 µM): 0.615
- relative viability (NCI-H1666; first compound 0.01 µM): 0.578
- relative viability (NCI-H1666; first compound 0.03162 µM): 0.545
- relative viability (NCI-H1666; first compound 0.1 µM): 0.652
- relative viability (NCI-H1792; first compound 0.001 µM): 0.277
- relative viability (NCI-H1792; first compound 0.003162 µM): 0.318
- relative viability (NCI-H1792; first compound 0.01 µM): 0.164
- relative viability (NCI-H1792; first compound 0.03162 µM): 0.203
- relative viability (NCI-H1792; first compound 0.1 µM): 0.259
- relative viability (NCI-H1915; first compound 0.001 µM): 0.372
- relative viability (NCI-H1915; first compound 0.003162 µM): 0.394
- relative viability (NCI-H1915; first compound 0.01 µM): 0.413
- relative viability (NCI-H1915; first compound 0.03162 µM): 0.372
- relative viability (NCI-H1915; first compound 0.1 µM): 0.381
- relative viability (NCI-H1975; first compound 0.001 µM): 0.406
- relative viability (NCI-H1975; first compound 0.003162 µM): 0.438
- relative viability (NCI-H1975; first compound 0.01 µM): 0.413
- relative viability (NCI-H1975; first compound 0.03162 µM): 0.363
- relative viability (NCI-H1975; first compound 0.1 µM): 0.378
- relative viability (NCI-H2342; first compound 0.001 µM): 0.534
- relative viability (NCI-H2342; first compound 0.003162 µM): 0.614
- relative viability (NCI-H2342; first compound 0.01 µM): 0.556
- relative viability (NCI-H2342; first compound 0.03162 µM): 0.523
- relative viability (NCI-H2342; first compound 0.1 µM): 0.504
- relative viability (NCI-H23; first compound 0.001 µM): 0.706
- relative viability (NCI-H23; first compound 0.003162 µM): 0.58
- relative viability (NCI-H23; first compound 0.01 µM): 0.891
- relative viability (NCI-H23; first compound 0.03162 µM): 0.624
- relative viability (NCI-H23; first compound 0.1 µM): 0.594
- relative viability (NCI-H322M; first compound 0.001 µM): 0.781
- relative viability (NCI-H322M; first compound 0.003162 µM): 0.702
- relative viability (NCI-H322M; first compound 0.01 µM): 0.87
- relative viability (NCI-H322M; first compound 0.03162 µM): 0.741
- relative viability (NCI-H322M; first compound 0.1 µM): 0.833
- relative viability (NCI-H358; first compound 0.001 µM): 0.317
- relative viability (NCI-H358; first compound 0.003162 µM): 0.453
- relative viability (NCI-H358; first compound 0.01 µM): 0.394
- relative viability (NCI-H358; first compound 0.03162 µM): 0.259
- relative viability (NCI-H358; first compound 0.1 µM): 0.217
- relative viability (NCI-H441; first compound 0.001 µM): 0.798
- relative viability (NCI-H441; first compound 0.003162 µM): 0.89
- relative viability (NCI-H441; first compound 0.01 µM): 0.896
- relative viability (NCI-H441; first compound 0.03162 µM): 0.648
- relative viability (NCI-H441; first compound 0.1 µM): 0.881
- relative viability (NCI-H460; first compound 0.001 µM): 0.298
- relative viability (NCI-H460; first compound 0.003162 µM): 0.805
- relative viability (NCI-H460; first compound 0.01 µM): 1.18
- relative viability (NCI-H460; first compound 0.03162 µM): 0.338
- relative viability (NCI-H460; first compound 0.1 µM): 0.106
- relative viability (NCI-H520; first compound 0.001 µM): 0.707
- relative viability (NCI-H520; first compound 0.01 µM): 0.655
- relative viability (NCI-H520; first compound 0.03162 µM): 0.447
- relative viability (NCI-H520; first compound 0.1 µM): 0.428
- relative viability (NCI-H522; first compound 0.001 µM): 0.591
- relative viability (NCI-H522; first compound 0.003162 µM): 0.613
- relative viability (NCI-H522; first compound 0.01 µM): 0.719
- relative viability (NCI-H522; first compound 0.03162 µM): 0.663
- relative viability (NCI-H522; first compound 0.1 µM): 0.56
- relative viability (NCI-H596; first compound 0.001 µM): 0.588
- relative viability (NCI-H596; first compound 0.003162 µM): 0.697
- relative viability (NCI-H596; first compound 0.01 µM): 0.909
- relative viability (NCI-H596; first compound 0.03162 µM): 0.475
- relative viability (NCI-H596; first compound 0.1 µM): 0.432
- relative viability (NCI-H647; first compound 0.001 µM): 0.627
- relative viability (NCI-H647; first compound 0.003162 µM): 0.628
- relative viability (NCI-H647; first compound 0.01 µM): 0.594
- relative viability (NCI-H647; first compound 0.03162 µM): 0.449
- relative viability (NCI-H647; first compound 0.1 µM): 0.336
- relative viability (NCI-H661; first compound 0.001 µM): 0.307
- relative viability (NCI-H661; first compound 0.003162 µM): 0.268
- relative viability (NCI-H661; first compound 0.03162 µM): 0.279
- relative viability (NCI-H661; first compound 0.1 µM): 0.288
- relative viability (NCI-H727; first compound 0.001 µM): 0.579
- relative viability (NCI-H727; first compound 0.003162 µM): 0.577
- relative viability (NCI-H727; first compound 0.01 µM): 0.419
- relative viability (NCI-H727; first compound 0.03162 µM): 0.379
- relative viability (NCI-H727; first compound 0.1 µM): 0.346
- relative viability (NCI-H838; first compound 0.001 µM): 0.599
- relative viability (NCI-H838; first compound 0.003162 µM): 0.613
- relative viability (NCI-H838; first compound 0.01 µM): 0.695
- relative viability (NCI-H838; first compound 0.03162 µM): 0.492
- relative viability (NCI-H838; first compound 0.1 µM): 0.51
- relative viability (PC-3 [JPC-3]; first compound 0.001 µM): 0.463
- relative viability (PC-3 [JPC-3]; first compound 0.003162 µM): 0.49
- relative viability (PC-3 [JPC-3]; first compound 0.01 µM): 0.475
- relative viability (PC-3 [JPC-3]; first compound 0.03162 µM): 0.443
- relative viability (PC-3 [JPC-3]; first compound 0.1 µM): 0.482
- relative viability (SK-LU-1; first compound 0.001 µM): 0.47
- relative viability (SK-LU-1; first compound 0.003162 µM): 0.455
- relative viability (SK-LU-1; first compound 0.01 µM): 0.597
- relative viability (SK-LU-1; first compound 0.03162 µM): 0.402
- relative viability (SK-LU-1; first compound 0.1 µM): 0.306
